The text below walks through data of PMC12655526, “Effective Oral Delivery of Teriparatide Using Organoclay—Polymethacrylate Nanocomposites for Osteoporosis Therapy” (Pharmaceutics, 2025).

Data set [1] concerns dexamethasone-induced osteoporosis rats. Put plainly: Micro-CT and histology of femora in dexamethasone-induced osteoporosis rats. It is filed as in vivo, rat. Here is the method:
The therapeutic effect of orally delivered EE/AC-Teri was examined in dexamethasone-induced osteoporosis rats under an Institutional Animal Care and Use committee (IACUC)-approved protocol (IACUC-2023-039-2). Male Sprague–Dawley rats (280–300 g) were randomly allocated to four groups (n = 6 each). The control group received a daily subcutaneous saline. In the osteoporotic model group, 0.1 mg/kg dexamethasone was administered subcutaneously each day to induce bone loss. The injectable teriparatide treatment group was given a combination of daily subcutaneous dexamethasone (0.1 mg/kg) and teriparatide (0.04 mg/kg). The final group was administered EE/AC-Teri orally (16 mg/kg of teriparatide), in combination with daily subcutaneous dexamethasone (0.1 mg/kg). After 8 week-treatment, blood was drawn for biochemical analysis. Blood (0.6 mL) was collected once on day 57 via the jugular vein under 1.5% isoflurane anesthesia in a Tabletop Anesthesia System (Harvard Apparatus, Cambridge, MA, USA). Serum osteocalcin (OCN), procollagen type I N-terminal propeptide (PINP), C-terminal telopeptide of type I collagen (CTx), tartrate-resistant acid phosphatase 5b (TRAP5b), and calcium were quantified with commercial ELISA kits (Thermo Fisher Scientific, Waltham, MA, USA) according to the manufacturer’s instructions. At study completion, animals were euthanized using a 30%/min displacement of chamber air with compressed CO2. Both femora were excised and fixed in 4% neutral-buffered formalin for 48 h. Fixed bones were processed for histological and structural analysis. Some samples were paraffin-embedded and sectioned for histological examination using hematoxylin and eosin (H&E) staining. The remaining specimens were subjected to structural evaluation via micro-computed tomography (micro-CT; the Korea Basic Science Institute). Images were acquired using a 90 kV/80 μA X-ray source over a 4 min acquisition time, with the scan field confined to 10 mm. Reconstructed images were generated at an isotropic voxel resolution of 20 μm. Quantitative parameters describing trabecular bone microarchitecture were assessed using Analyze software (ver 12.0; AnalyzeDirect, Overland Park, KS, USA).

Data set [2] deals with trypsin. Put plainly: Gastrointestinal stability in simulated intestinal fluid (SIF). It is filed as in vitro ADME. Conditions: SIF pH 7.4, 20 μg/mL trypsin, 0.5 mg/mL teriparatide, 37 °C, 100 rpm; CD after release in PBS pH 7.4. As for the experimental part:
(§1) The conformational integrity of teriparatide encapsulated within nanocomplexes was assessed under simulated gastrointestinal conditions using enzyme-supplemented media. Specifically, samples were incubated in simulated gastric fluid (SGF; pH 1.2, containing 5 μg/mL pepsin) or simulated intestinal fluid (SIF; pH 7.4, supplemented with 20 μg/mL trypsin). Nanoparticles corresponding to 0.5 mg/mL of teriparatide were dispersed in 1 mL of either SGF or SIF and incubated at 37 °C with stirring at 100 rpm. Digestion was quenched with 0.2 mL of 0.2 M NaOH (for SGF) or 0.1 M HCl (for SIF) at predefined times. The nanoparticles were then isolated via centrifugation, redispersed in PBS (pH 7.4), and incubated for 2 h. The conformation of teriparatide following its release from nanoparticles was analyzed by CD spectroscopy to verify structural stability.

In data set [3] the test system is dexamethasone-induced osteoporosis rats. Put plainly: Serum bone-turnover biomarkers in dexamethasone-induced osteoporosis rats. It is filed as in vivo, rat. The conditions noted are these: 8 weeks daily, oral EE/AC-Teri 16 mg/kg or sc teriparatide 0.04 mg/kg, n = 6. Here is the method:
The therapeutic effect of orally delivered EE/AC-Teri was examined in dexamethasone-induced osteoporosis rats under an Institutional Animal Care and Use committee (IACUC)-approved protocol (IACUC-2023-039-2). Male Sprague–Dawley rats (280–300 g) were randomly allocated to four groups (n = 6 each). The control group received a daily subcutaneous saline. In the osteoporotic model group, 0.1 mg/kg dexamethasone was administered subcutaneously each day to induce bone loss. The injectable teriparatide treatment group was given a combination of daily subcutaneous dexamethasone (0.1 mg/kg) and teriparatide (0.04 mg/kg). The final group was administered EE/AC-Teri orally (16 mg/kg of teriparatide), in combination with daily subcutaneous dexamethasone (0.1 mg/kg). After 8 week-treatment, blood was drawn for biochemical analysis. […] Serum osteocalcin (OCN), procollagen type I N-terminal propeptide (PINP), C-terminal telopeptide of type I collagen (CTx), tartrate-resistant acid phosphatase 5b (TRAP5b), and calcium were quantified with commercial ELISA kits (Thermo Fisher Scientific, Waltham, MA, USA) according to the manufacturer’s instructions. […] Quantitative parameters describing trabecular bone microarchitecture were assessed using Analyze software (ver 12.0; AnalyzeDirect, Overland Park, KS, USA).

For data set [4], the target named is T1, pepsin (Sus scrofa, UniProt P00791).
T1 construct: purchased Sigma-Aldrich Co. (St Louis, MO, USA)
T1 sequence (P00791 60-385): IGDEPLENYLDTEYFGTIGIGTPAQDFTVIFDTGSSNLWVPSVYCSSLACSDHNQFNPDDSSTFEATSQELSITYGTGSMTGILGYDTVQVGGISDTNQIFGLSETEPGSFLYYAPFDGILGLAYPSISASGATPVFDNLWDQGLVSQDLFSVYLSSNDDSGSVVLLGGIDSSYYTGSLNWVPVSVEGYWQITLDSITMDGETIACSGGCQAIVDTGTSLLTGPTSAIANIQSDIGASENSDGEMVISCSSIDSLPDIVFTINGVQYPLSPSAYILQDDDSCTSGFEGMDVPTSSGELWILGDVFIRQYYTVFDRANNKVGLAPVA
Put plainly: Gastrointestinal stability in simulated gastric fluid (SGF). Type of data set: in vitro ADME. The conditions noted are these: SGF pH 1.2, 5 μg/mL pepsin, 0.5 mg/mL teriparatide, 37 °C, 100 rpm; CD after release in PBS pH 7.4. As for the experimental part: as §1

[5] abbreviates: 8 weeks daily, oral EE/AC-Teri 16 mg/kg or sc teriparatide 0.04 mg/kg, dexamethasone rats, femur.

For `CC[C@H](C)[C@H](NC(=O)[C@H](CCC(=O)O)NC(=O)[C@H](CO)NC(=O)[C@@H](NC(=O)[C@@H](N)CO)C(C)C)C(=O)N[C@@H](CCC(N)=O)C(=O)N[C@@H](CC(C)C)C(=O)N[C@@H](CCSC)C(=O)N[C@@H](Cc1cnc[nH]1)C(=O)N[C@@H](CC(N)=O)C(=O)N[C@@H](CC(C)C)C(=O)NCC(=O)N[C@@H](CCCCN)C(=O)N[C@@H](Cc1cnc[nH]1)C(=O)N[C@@H](CC(C)C)C(=O)N[C@@H](CC(N)=O)C(=O)N[C@@H](CO)C(=O)N[C@@H](CCSC)C(=O)N[C@@H](CCC(=O)O)C(=O)N[C@@H](CCCN=C(N)N)C(=O)N[C@H](C(=O)N[C@@H](CCC(=O)O)C(=O)N[C@@H](Cc1c[nH]c2ccccc12)C(=O)N[C@@H](CC(C)C)C(=O)N[C@@H](CCCN=C(N)N)C(=O)N[C@@H](CCCCN)C(=O)N[C@@H](CCCCN)C(=O)N[C@@H](CC(C)C)C(=O)N[C@@H](CCC(N)=O)C(=O)N[C@@H](CC(=O)O)C(=O)N[C@H](C(=O)N[C@@H](Cc1cnc[nH]1)C(=O)N[C@@H](CC(N)=O)C(=O)N[C@@H](Cc1ccccc1)C(=O)O)C(C)C)C(C)C` [teriparatide], in data set [1] (setting [5]), the “Trabecular architecture by histology (H&E)” value is “partially restored architecture” and the “Trabecular architecture by micro-CT imaging” value is on record as “mitigated these lesions, preserving a denser, interconnected trabecular network”. In addition, in data set [1] (micro-CT, 8 weeks, oral EE/AC-Teri 16 mg/kg or sc teriparatide 0.04 mg/kg, versus dexamethasone control, n = 6), the “Bone mineral density (BMD)” value is “significantly restored”. Moreover, the “Bone volume fraction (BV/TV)” value in data set [1] (micro-CT, 8 weeks, sc teriparatide 0.04 mg/kg, versus dexamethasone control, n = 6) is given as “significantly restored”. Moreover, the “Conformational integrity of teriparatide in SIF (CD spectra)” value in data set [2] is “pronounced conformational alterations in both SGF and SIF”. The “Serum calcium / hypercalcemia” value in data set [3] is given as “did not produce sustained hypercalcemia”. Moreover, the “Conformational integrity of teriparatide in SGF (CD spectra)” value in data set [4] is “pronounced conformational alterations in both SGF and SIF”.
